Laboratory results taken from the kinase profiling compilation of Christmann-Franck et al. (2016).
pKd: −log10 of the molar value.

What was measured:
Experiment in all cases: KINOMEscan competition binding
AAK1 (human) = AAK1 (human) (UniProt Q2M2I8)
ABL1 (human) = ABL1 (human) (UniProt P00519)
[1] = molecular target: ABL1 (human), P00519 [Q252H]
[2] = molecular target: ABL1 (human), P00519 [T315I]
AURKA (human) = AURKA (human) (UniProt O14965)
BTK (human) = BTK (human) (UniProt Q06187)
CAMK1 (human) = CAMK1 (human) (UniProt Q14012)
CAMK2B (human) = CAMK2B (human) (UniProt Q13554)
CLK2 (human) = CLK2 (human) (UniProt P49760)
CLK3 (human) = CLK3 (human) (UniProt P49761)
CSK (human) = CSK (human) (UniProt P41240)
DAPK2 (human) = DAPK2 (human) (UniProt Q9UIK4)
EPHA4 (human) = EPHA4 (human) (UniProt P54764)
EPHA7 (human) = EPHA7 (human) (UniProt Q15375)
FGFR3 (human) = FGFR3 (human) (UniProt P22607)
FLT4 (human) = FLT4 (human) (UniProt P35916)
[3] = molecular target: JAK1 JH1 catalytic (human) (UniProt P23458)
[4] = molecular target: JAK2 JH2 pseudokinase (human) (UniProt O60674)
KDR (human) = KDR (human) (UniProt P35968)
LCK (human) = LCK (human) (UniProt P06239)
LYN (human) = LYN (human) (UniProt P07948)
MYLK2 (human) = MYLK2 (human) (UniProt Q9H1R3)
NEK2 (human) = NEK2 (human) (UniProt P51955)
NEK6 (human) = NEK6 (human) (UniProt Q9HC98)
NEK9 (human) = NEK9 (human) (UniProt Q8TD19)
PAK1 (human) = PAK1 (human) (UniProt Q13153)
PAK4 (human) = PAK4 (human) (UniProt O96013)
PKMYT1 (human) = PKMYT1 (human) (UniProt Q99640)
PRKAA1 (human) = PRKAA1 (human) (UniProt Q13131)
RPS6KA3 KD1 (human) = RPS6KA3 KD1 (human) (UniProt P51812)
SLK (human) = SLK (human) (UniProt Q9H2G2)
STK17A (human) = STK17A (human) (UniProt Q9UEE5)
STK17B (human) = STK17B (human) (UniProt O94768)
STK38L (human) = STK38L (human) (UniProt Q9Y2H1)
STK4 (human) = STK4 (human) (UniProt Q13043)
TNK2 (human) = TNK2 (human) (UniProt Q07912)
TTK (human) = TTK (human) (UniProt P33981)
YES1 (human) = YES1 (human) (UniProt P07947)
CSNK1G2 (human) = CSNK1G2 (human) (UniProt P78368)
MAPK11 (human) = MAPK11 (human) (UniProt Q15759)
PAK3 (human) = PAK3 (human) (UniProt O75914)
STK36 (human) = STK36 (human) (UniProt Q9NRP7)

FGFR3 (human), sequence (P22607 whole entry, looked up): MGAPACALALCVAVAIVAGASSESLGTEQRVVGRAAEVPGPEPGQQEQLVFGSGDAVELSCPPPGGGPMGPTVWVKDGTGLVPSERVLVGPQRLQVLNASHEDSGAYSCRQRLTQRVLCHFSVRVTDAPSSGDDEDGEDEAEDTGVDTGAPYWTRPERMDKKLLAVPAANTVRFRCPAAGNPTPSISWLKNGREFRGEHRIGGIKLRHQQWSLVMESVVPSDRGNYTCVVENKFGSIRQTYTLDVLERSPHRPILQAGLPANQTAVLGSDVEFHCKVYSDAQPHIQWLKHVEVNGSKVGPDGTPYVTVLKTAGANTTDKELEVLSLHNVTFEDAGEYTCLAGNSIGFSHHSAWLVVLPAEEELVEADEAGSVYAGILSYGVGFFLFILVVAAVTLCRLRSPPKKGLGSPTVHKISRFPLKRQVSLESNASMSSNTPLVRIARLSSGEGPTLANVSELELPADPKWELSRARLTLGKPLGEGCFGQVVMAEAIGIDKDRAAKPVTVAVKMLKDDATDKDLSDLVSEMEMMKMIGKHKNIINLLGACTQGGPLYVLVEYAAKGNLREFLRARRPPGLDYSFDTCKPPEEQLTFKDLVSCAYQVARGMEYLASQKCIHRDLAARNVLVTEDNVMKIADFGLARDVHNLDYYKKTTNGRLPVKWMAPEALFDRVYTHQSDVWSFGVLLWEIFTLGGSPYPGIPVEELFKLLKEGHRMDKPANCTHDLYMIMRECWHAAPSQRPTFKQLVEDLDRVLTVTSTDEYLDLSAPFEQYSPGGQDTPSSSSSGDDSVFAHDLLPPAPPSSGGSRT
PRKAA1 (human), sequence (Q13131 whole entry, looked up): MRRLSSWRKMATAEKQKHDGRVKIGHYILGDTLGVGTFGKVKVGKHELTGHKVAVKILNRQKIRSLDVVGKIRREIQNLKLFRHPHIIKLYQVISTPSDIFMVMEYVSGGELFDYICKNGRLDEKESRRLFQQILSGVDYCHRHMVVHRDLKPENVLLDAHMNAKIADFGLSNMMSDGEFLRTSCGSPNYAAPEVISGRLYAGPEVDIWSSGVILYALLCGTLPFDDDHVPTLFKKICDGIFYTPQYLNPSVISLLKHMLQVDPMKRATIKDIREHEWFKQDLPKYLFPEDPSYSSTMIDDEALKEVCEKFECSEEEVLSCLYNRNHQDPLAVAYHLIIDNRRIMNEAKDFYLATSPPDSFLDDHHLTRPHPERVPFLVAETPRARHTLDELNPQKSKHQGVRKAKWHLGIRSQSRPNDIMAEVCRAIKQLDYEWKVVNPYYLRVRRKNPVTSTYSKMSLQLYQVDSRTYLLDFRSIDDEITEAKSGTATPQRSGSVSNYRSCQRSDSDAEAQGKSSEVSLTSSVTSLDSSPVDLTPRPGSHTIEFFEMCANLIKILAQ
EPHA7 (human), sequence (Q15375 whole entry, looked up): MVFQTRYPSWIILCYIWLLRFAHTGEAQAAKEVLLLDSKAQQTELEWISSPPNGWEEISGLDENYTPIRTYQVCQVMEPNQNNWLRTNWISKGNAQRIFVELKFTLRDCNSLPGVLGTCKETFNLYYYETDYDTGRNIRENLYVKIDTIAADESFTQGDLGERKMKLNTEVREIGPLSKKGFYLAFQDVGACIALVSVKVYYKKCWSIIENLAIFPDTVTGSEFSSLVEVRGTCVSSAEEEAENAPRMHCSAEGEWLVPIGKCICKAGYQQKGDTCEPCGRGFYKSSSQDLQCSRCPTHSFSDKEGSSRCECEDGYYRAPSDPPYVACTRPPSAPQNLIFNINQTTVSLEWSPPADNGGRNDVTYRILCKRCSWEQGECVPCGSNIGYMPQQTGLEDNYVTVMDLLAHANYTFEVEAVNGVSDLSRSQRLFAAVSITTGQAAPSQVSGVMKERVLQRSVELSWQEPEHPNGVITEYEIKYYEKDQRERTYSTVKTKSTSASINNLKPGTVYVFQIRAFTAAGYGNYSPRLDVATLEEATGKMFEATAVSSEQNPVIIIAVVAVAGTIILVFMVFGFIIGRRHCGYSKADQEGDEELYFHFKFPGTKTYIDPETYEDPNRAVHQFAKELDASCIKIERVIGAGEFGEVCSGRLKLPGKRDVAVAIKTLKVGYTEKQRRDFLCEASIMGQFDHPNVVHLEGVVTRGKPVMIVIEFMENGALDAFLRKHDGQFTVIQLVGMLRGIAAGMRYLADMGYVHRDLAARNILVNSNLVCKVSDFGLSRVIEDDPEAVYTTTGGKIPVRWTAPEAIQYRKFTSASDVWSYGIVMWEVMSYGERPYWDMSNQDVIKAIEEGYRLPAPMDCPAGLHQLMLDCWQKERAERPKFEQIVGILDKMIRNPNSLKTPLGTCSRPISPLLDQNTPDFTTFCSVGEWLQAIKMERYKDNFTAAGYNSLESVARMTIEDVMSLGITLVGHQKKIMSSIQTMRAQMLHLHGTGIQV
NEK6 (human), sequence (Q9HC98 whole entry, looked up): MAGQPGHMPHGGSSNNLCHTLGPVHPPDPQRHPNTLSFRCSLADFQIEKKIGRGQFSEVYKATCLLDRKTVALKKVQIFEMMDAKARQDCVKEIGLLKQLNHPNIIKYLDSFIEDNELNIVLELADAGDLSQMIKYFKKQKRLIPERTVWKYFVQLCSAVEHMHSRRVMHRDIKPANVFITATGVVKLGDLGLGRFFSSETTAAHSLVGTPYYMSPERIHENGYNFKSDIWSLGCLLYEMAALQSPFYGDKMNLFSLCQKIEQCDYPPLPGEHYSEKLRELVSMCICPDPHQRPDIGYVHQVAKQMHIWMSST
YES1 (human), sequence (P07947 whole entry, looked up): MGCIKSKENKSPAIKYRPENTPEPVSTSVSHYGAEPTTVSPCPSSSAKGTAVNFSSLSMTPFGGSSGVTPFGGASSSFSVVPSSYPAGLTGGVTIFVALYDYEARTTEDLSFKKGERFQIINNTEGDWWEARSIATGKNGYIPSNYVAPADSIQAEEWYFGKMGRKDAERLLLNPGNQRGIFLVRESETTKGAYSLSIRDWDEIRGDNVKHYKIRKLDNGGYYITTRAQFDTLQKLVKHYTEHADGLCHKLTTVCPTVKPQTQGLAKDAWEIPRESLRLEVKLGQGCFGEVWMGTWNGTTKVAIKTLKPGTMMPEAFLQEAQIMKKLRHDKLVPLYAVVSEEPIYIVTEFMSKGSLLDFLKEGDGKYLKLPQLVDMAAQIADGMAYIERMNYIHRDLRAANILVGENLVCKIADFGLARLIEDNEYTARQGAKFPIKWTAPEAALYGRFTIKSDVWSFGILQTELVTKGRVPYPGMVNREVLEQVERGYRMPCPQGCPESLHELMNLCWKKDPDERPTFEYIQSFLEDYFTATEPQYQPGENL
NEK9 (human), sequence (Q8TD19 whole entry, looked up): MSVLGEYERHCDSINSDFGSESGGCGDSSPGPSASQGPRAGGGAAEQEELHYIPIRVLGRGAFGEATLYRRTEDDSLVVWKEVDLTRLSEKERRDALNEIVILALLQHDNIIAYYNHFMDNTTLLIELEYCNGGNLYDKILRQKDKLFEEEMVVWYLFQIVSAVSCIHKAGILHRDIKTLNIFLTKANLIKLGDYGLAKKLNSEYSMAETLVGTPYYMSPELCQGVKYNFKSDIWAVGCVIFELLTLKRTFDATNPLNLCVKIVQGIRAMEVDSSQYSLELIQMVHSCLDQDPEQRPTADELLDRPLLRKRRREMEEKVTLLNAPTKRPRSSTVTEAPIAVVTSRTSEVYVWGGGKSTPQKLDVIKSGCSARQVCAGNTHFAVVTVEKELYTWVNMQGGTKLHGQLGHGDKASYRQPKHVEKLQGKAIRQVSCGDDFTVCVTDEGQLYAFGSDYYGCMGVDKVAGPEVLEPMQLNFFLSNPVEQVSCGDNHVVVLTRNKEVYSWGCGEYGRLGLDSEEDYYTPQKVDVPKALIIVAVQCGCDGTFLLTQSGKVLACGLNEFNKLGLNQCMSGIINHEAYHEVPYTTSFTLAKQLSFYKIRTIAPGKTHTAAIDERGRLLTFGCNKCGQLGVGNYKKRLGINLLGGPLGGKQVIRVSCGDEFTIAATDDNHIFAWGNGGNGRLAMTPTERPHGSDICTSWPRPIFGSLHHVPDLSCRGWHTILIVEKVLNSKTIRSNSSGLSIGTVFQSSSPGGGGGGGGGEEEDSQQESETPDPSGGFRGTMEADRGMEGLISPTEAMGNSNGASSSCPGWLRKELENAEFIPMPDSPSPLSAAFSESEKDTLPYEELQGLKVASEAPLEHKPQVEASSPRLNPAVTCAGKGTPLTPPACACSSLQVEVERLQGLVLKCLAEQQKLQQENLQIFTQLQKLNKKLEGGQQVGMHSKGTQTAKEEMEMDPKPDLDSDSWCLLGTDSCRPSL
CAMK1 (human), sequence (Q14012 whole entry, looked up): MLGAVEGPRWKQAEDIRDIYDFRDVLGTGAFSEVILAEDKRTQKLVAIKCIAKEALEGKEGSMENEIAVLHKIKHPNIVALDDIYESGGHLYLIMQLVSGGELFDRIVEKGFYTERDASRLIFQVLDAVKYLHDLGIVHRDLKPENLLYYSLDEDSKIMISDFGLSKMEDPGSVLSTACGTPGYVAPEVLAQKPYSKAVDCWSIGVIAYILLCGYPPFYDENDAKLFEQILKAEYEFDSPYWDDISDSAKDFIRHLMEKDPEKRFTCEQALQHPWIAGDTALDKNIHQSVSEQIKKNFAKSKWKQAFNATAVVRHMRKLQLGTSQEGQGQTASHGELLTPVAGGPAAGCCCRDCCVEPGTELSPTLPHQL
CSK (human), sequence (P41240 whole entry, looked up): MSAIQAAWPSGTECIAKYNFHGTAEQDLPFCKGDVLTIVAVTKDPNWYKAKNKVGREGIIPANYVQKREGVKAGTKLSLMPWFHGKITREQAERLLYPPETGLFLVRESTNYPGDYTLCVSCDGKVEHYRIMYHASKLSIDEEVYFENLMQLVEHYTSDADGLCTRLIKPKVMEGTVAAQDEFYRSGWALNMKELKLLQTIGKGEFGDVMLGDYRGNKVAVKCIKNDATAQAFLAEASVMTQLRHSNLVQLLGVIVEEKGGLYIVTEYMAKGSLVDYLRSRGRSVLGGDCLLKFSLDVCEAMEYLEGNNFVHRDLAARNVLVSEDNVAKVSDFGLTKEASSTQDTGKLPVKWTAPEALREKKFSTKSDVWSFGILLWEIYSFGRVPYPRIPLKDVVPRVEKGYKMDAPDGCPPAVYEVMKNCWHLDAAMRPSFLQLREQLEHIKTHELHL

SMILES | pKd (ABL1 (human)) | pKd [1] | pKd [2] | pKd (BTK (human)) | pKd (CAMK1 (human)) | pKd (CLK3 (human)) | pKd (CSK (human)) | pKd (EPHA4 (human)) | pKd (EPHA7 (human)) | pKd (FGFR3 (human)) | pKd (FLT4 (human)) | pKd [3] | pKd [4] | pKd (KDR (human)) | pKd (LCK (human)) | pKd (LYN (human)) | pKd (MYLK2 (human)) | pKd (NEK2 (human)) | pKd (NEK6 (human)) | pKd (NEK9 (human)) | also measured
Oc1ccc(-c2nc(-c3ccc(F)cc3)c(-c3ccncc3)[nH]2)cc1 | < 5.00 | < 5.00 | < 5.00 | < 5.00 | < 5.00 | < 5.00 | < 5.00 | < 5.00 | < 5.00 | < 5.00 | < 5.00 | < 5.00 | < 5.00 | < 5.00 | < 5.00 | < 5.00 | < 5.00 | < 5.00 | < 5.00 | < 5.00 | pKd (AAK1 (human)): < 5.00; pKd (AURKA (human)): < 5.00; pKd (CAMK2B (human)): < 5.00; pKd (CLK2 (human)): < 5.00; pKd (DAPK2 (human)): < 5.00; pKd (PAK1 (human)): < 5.00; pKd (PAK4 (human)): < 5.00; pKd (PKMYT1 (human)): < 5.00; pKd (PRKAA1 (human)): < 5.00; pKd (RPS6KA3 KD1 (human)): < 5.00; pKd (SLK (human)): < 5.00; pKd (STK17A (human)): < 5.00; pKd (STK17B (human)): < 5.00; pKd (STK38L (human)): < 5.00; pKd (STK4 (human)): < 5.00; pKd (TNK2 (human)): < 5.00; pKd (TTK (human)): < 5.00; pKd (YES1 (human)): < 5.00
O=C1c2ccccc2-c2n[nH]c3cccc1c23 | < 5.00 | < 5.00 | < 5.00 | < 5.00 | < 5.00 | < 5.00 | < 5.00 | < 5.00 | < 5.00 | < 5.00 | < 5.00 | < 5.00 | < 5.00 | < 5.00 | < 5.00 | < 5.00 | < 5.00 | < 5.00 | < 5.00 | < 5.00 | pKd (CSNK1G2 (human)): < 5.00; pKd (MAPK11 (human)): < 5.00; pKd (PAK1 (human)): < 5.00; pKd (PAK3 (human)): < 5.00; pKd (PAK4 (human)): < 5.00; pKd (PKMYT1 (human)): < 5.00; pKd (PRKAA1 (human)): < 5.00; pKd (RPS6KA3 KD1 (human)): < 5.00; pKd (STK17B (human)): < 5.00; pKd (STK36 (human)): < 5.00; pKd (TNK2 (human)): < 5.00; pKd (YES1 (human)): < 5.00
